These results are taken from publication PMC4585737, “Lipoproteins/peptides are sepsis-inducing toxins from bacteria that can be neutralized by synthetic anti-endotoxin peptides” (Scientific Reports, 2015).

“Also recorded” adds a separate entry of the source.

One assay deals with Pam3CSK4. As to the kind of experiment: Isothermal titration calorimetry of peptide into Pam3CSK4. Type of assay: binding. As for the experimental part: Microcalorimetric measurements of peptide binding to selected LP, i.e., Pam3CSK4 and FSL-1 were performed on a MCS isothermal titration calorimeter (Microcal, Freiburg, Germany) at 37 °C, as previously described. The LP containing solutions (0.05 mM, prepared as described above) were dispensed into the microcalorimetric cell (volume 1.5 ml), and the peptide solutions (1 mM) were loaded into the syringe compartment (volume 0.1 ml). After temperature equilibration, the peptide was titrated in 3 μl aliquots every 5 min into the LP-containing cell under constant stirring and the heat of interaction after each injection measured by the MCS instrument was plotted versus time.

The next assay relates to human mononuclear cells. Briefly: TNFα production in human mononuclear cells (MNC) stimulated by LP, LTA or PGN, and its inhibition by SALP. Type of assay: cell-based. The method, then: The stimulation of MNC was performed as described previously. Briefly, MNC were isolated from heparinized blood of healthy donors by the Hypaque-Ficoll density gradient method. The cell number was equilibrated at 5 × 10^6 cells/ml RPMI 1640 containing 2 mM L-glutamine, 100 U/ml penicillin and 100 μg/ml streptomycin. For stimulation, 200 μl/well MNC were transferred into 96-well culture plates. The stimuli were serially diluted in RPMI 1640 and added to the cultures at 20 μl per well. The cultures were incubated for 4 h at 37 °C under 5% CO2. Cell-free supernatants were collected after centrifugation of the culture plates for 10 min at 400 × g and stored at −20 °C until the determination of the cytokine content. Immunological determination of TNFα in the cell supernatant was performed in a sandwich-ELISA as described earlier (OptEIA; BD, Heidelberg, Germany). TNFα was determined and measured following manufacturer’s instructions and results are the average of two assays.
LP preparations were pre-warmed for 30 min at 37 °C, and added to the cultures at 20 μl per well. In inhibition experiments, different SALP were added directly after LPS/LP/LTA administration.
Since the data of the stimulation of human MNC by the bacterial and synthetic LP was taken over a time period of more than 6 years, the TNFα production lead to considerable variations due to different batches of LP and of Pep19-2.5, and in particular due to variations resulting from blood samples of different donors. Because the main emphasis laid here is the efficiency of the peptide to inhibit the cytokine production, most figures describe the inhibition efficieny of the peptide in %, by presenting the means ± SEM of at least 3 independent experiments. The absolute values of the cytokine production, where of note, is given separately in the text.

The test system of assay [1] is Balb/C mice. Briefly: Lethal toxemia in galactosamine-sensitized mice. Conditions: 200 μg/mouse peptide i.p. after 4 μg FSL-1 + D-galactosamine 18 mg/mouse; n = 6; up to 4 days; Kaplan-Meier, p < 0.05. Type of assay: in vivo, mouse. As for the experimental part: (§1) Seven-week-old female SPF-free Balb/C mice of 20 g of body weight, approximately, were purchased from Harlan Spain (Harlan Interfauna Iberica S.A., Barcelona, Spain) and randomly distributed in experimental groups (at least 4 animals per group except for the determination of lethal dose (n = 3)). Sample size was calculated based on previous results with the same animal model. Animals were housed in individually ventilated cages (5 mice per cage) bedded with hardwood bedding. Mice were provided ad libitum access to feed and water and lighting was adjusted to a 14-hour light/10-hour dark cycle. During the experiments, the condition of the animals was monitored daily every 4 hours and animals displaying persistent motor ataxia and hunched posture were euthanized.
To determine the lethal dose of FSL-1 in mice, the method of Galanos and collaborators[48] was followed with some modifications. Briefly, animals were intraperitoneally inoculated with increasing amounts of FSL-1 (50 ng, 500 ng, 5 μg and 50 μg) supplemented with 18 mg of D-galactosamine in a final volume of 200 μl of pyrogen-free saline. Galactosamine is known to sensitize mice to pro-inflammatory compounds such as LPS, thus making it possible to use lower amounts of the stimulatory drug[46]. The ability of Aspidasept® to protect mice from FSL-1 dependent lethal toxemia was assessed by co-administering FSL-1 (4 μg/mouse) with D-galactosamine (18 mg/mouse) intraperitoneally.
Results were globally analyzed by means of a Kaplan-Meier survival analysis (SPSS 15.0). When the survival plots were parallel, the data were compared by the log-rank test, whereas the Breslow-Gehan-Wilcoxon test was applied when the plots intersected.

Assay [2] relates to Balb/C mice. Briefly: Serum cytokine response in mice after intraperitoneal inoculation. Type of assay: in vivo, mouse. Conditions: 400 μg peptide i.p. immediately after 40 μg FSL-1, different site, n = 5. The method, then:
as §1
To study if FSL-1 had pro-inflammatory cytokine-inducing activity, animals were intraperitoneally inoculated with 40 μg of FSL-1 resuspended in 200 μl of pyrogen-free saline. Blood samples were taken both at 1.5 h or 4 h after FSL-1 challenge to measure TNFα and IL-6 levels. For this purpose, mice were anesthetised, a blood sample was obtained by the retroorbital plexus and serum cytokine levels were measured using Quantikine Immunoassays kits (R&D systems, Minneapolis, USA) following manufacturer’s instructions. Differences between groups were statistically analyzed using the Mann-Whitney U test.
To evaluate the ability of Aspidasept® to neutralize the FSL-1 induced pro-inflammatory cytokines, a group of animals received by the intraperitoneal route first 40 μg of FSL-1 and then 400 μg of the drug resuspended in 100 μl of pyrogen-free saline. This second injection was administered immediately after FSL-1 challenge at a different site of the peritoneum. TNFα and IL-6 levels were measured (see above) at 1.5 h or 4 h after challenge, respectively, coinciding with the peak of cytokine secretion, as determined in preliminary experiments.

For the sequence “GCKKYRRFRWKFKGKFWFWG [Aspidasept®, synthetic anti-LPS peptide (SALP), 20′mer, anti-septic therapeutic drug candidate]”, the “ITC: Pam3CSK4:peptide interaction” value in the assay with Pam3CSK4 (LP 0.05 mM, peptide 1 mM titrated in 3 μl portions every 5 min, 37 °C) is recorded as “weak exothermic reaction; also recorded: no clear thermal reaction”. Also, the “affinity of the peptide towards the LP” value in the assay with Pam3CSK4 (Pam3CSK4, concluded from ITC) is reported as “poor affinity”. In addition, the “inhibition of TNFα induction by LP, LTA and PGN” value in the assay on human mononuclear cells (10:1 excess weight ratio of the peptide) is on record as “takes place in most cases”. The “cytokine expression induced by LP, LTA and PGN in presence of peptide” value with human mononuclear cells (100:1 weight ratio of the peptide) is listed as “no longer any detectable cytokine expression”. Besides, the “reduction of FSL-1-induced TNFα secretion” value in the assay on human mononuclear cells (stimulus FSL-1 100 and 10 ng/ml, 10-fold (10:1 weight%) excess of peptide) is recorded as “considerable reduction; also recorded: good degree of inhibition”; in the assay on human mononuclear cells (stimulus FSL-1, 100:1 excess of peptide), “nearly completely abolished”. Moreover, the “inhibition of LP dependent TNFα production” value with human mononuclear cells (stimulus LP OspA and OspC, 10000 and 1000 ng/ml, peptide:LP ratio 10:1) is “inhibited”. Besides, the “LP dependent TNFα production in presence of peptide” value in the assay with human mononuclear cells (stimulus LP OspA and OspC, peptide:LP 100:1 concentration ratio, data not shown) was “undetectable levels”. Besides, the “reduction of LTA-dependent TNFα response” value in the assay with human mononuclear cells (stimulus LTA from S. aureus SA113Δlgt, 10000 and 1000 ng/ml, 10-fold excess of peptide) was “effectively reduced”. Moreover, in the assay with human mononuclear cells (stimulus MALP-2, 100:1 weight% excess of the peptide, data not shown), the “inhibition of pro-inflammatory activity of MALP-2” value is “nearly complete inhibition”. For the same sequence, the “inhibition of PGN-induced TNFα response” value in the assay with human mononuclear cells (stimulus PGN from S. aureus SA113Δlgt, 10000 and 1000 ng/ml, 10-fold excess of peptide) is “totally inhibited”. For the same sequence, the “inhibition of Pam3CSK4-induced cytokine (TNFα) production” value in the assay on human mononuclear cells (stimulus Pam3CSK4 1000, 100, 10 ng/ml, [LP]:[Pep] up to 1:100 weight%) is reported as “only a minor inhibitory effect; also recorded: no significant influence; also recorded: no or only a small inhibition”. Moreover, the “inhibition of LTA-induced TNFα” value in the assay with human mononuclear cells (stimulus commercial LTA from B. subtilis, 10:1 weight% excess of peptide) was “complete inhibition”. Moreover, the “inhibition of LTA-induced cytokine” value with human mononuclear cells (stimulus commercial LTA from S. aureus, data not shown) was “inhibited”. Moreover, the “survival of mice challenged with FSL-1” value in the assay on Balb/C mice [1] is reported as “significant survival benefit”. For the same sequence, the “inhibition of FSL-1 induced TNFα stimulation in mice” value with Balb/C mice [2] (1.5 h, p < 0.01) is “totally inhibited”. Besides, in the assay on Balb/C mice [2] (4 h), the “reduction of FSL-1 induced IL-6 levels in mice” value is “slight reduction”.
